Data from patent publication US7927579B2, “Tandem analyses of noncovalently driven effectors for modulatory mapping of activities of protein sites” (priority 2003, dated 2011).
Where no end group is shown, it is not given here.

Legend:
[1] = biological target: T1, HIV protease I (Human immunodeficiency virus type 1 group M subtype B, UniProt P04585); details: covalent attachment to Cys95 at the dimer interfaces; Davis et al.; cited from earlier work
T1 construct: HIV-1 PR (15 μg/ml final concentration) was preincubated at 25 C

[2] = biological target: HIV I protease (Human immunodeficiency virus type 1 group M subtype B, UniProt P04585); details: Danielson et al.; cited from earlier work
[3] = biological target: T2, HIV PR (Human immunodeficiency virus type 1 group M subtype B, UniProt P04585); test: Octapeptide library screen against HIV PR with and without CuCl2; format: biochemical; details: non-substrate based inhibiting peptide; residual HIV PR activity measured after cupric ion scavenger
T2 construct: preincubating the tetrapeptide(s) with HIV PR then adding the disulfide
Description: Combinatorial libraries of octapeptides were synthesized using T, L, N, F, S, G, F Q, V and I at positions 3-6 to generate 10,000 octapeptides. E and I occupied positions 1 and 2, respectively, and G, L occupied positions […], respectively. The C-terminus was in amide form, and the N terminus was in amino form. The peptide libraries were synthesized by standard procedures known in the art, Houghten, supra. The libraries were screened against HIV PR with and without CuCl2. CuCl2 was added to block 50-75% activity. Libraries were screened against CuCl2 by preincubating the tetrapeptide(s) with HIV PR, then adding CuCl2 at t0 and waiting until time tx has elapsed, the time required to inhibit 50-75% of enzyme activity in the absence of the library. At tx residual HIV PR activity was measured according to Danielson et al, supra, after adding cupric ion scavenger, namely, iminodiacetic.

[4] = biological target: T2, HIV PR; test: Tetrapeptide library screen against glutathione or II on HIV PR (assay in Salto et al.); format: biochemical; details: tetrapeptides preincubated with HIV PR, then disulfide added; (100 μM) printed; bind at the dimer interface
Description: Targeting Cys95. […] Davis et al. Biochemistry 20:2482-2488 (1996). For quantification of the irreversible inactivation of HIV proteases by these disulfides, HIV-1 PR (15 μg/ml final concentration) was preincubated at 25 C in 50 mM HEPES (pH 8.0), 1M NaCl, 1 mM EDTA, 5% Me2SO in the presence of a 10 μM to 1 mM concentration of each inhibitor. At various times, aliquots were removed and assayed for activity. The rates of inactivation were calculated after Salto et al. J. Biol. Chem. 269:10691-10698 (1994).
Combinatorial libraries containing tetrapeptides were synthesized with free C and N termini using T, L, N, F, R, S, V, G, F Q, and H as amino acid residues randomly located at the four positions of P4P3P2P1 according to procedures well known in the art (Houghten, R. A. Annu. Rev. Pharmacol. Toxicol. 2000, 40:273-282 and references therein). The amino acids were either spatially separated or synthesized in 100 pools of 100 tetrapeptides. Libraries were screened against glutathione or II by preincubating the tetrapeptide(s) with HIV PR then adding the disulfide and waiting until time t^ has elapsed (the time required to inhibit 50-75% of the biological target molecule's activity) in the absence of the library.

Compound | inactivation of HIV protease I by covalent attachment to Cys95 [1] | activity in library screen against disulfide inactivation of HIV PR [4] | also measured
O=C(O)c1cc(SSc2ccc([N+](=O)[O-])c(C(=O)O)c2)ccc1[N+](=O)[O-] [5,5′-dithiobis(2-nitrobenzoic acid)] | inactivate HIV protease I | – | –
[Cl][Cu][Cl] [Cupric ions, CuCl2] | – | – | inactivation of HIV I protease by binding to Cys67 and His69 [2]: specifically inactivate HIV I protease
N[C@@H](CCC(=O)N[C@@H](CS)C(=O)NCC(=O)O)C(=O)O [glutathione] | inactivate HIV protease I | – | –
LGQGVSIE-NH2 | – | – | inhibitory activity against HIV PR [3]: about 5 μM
S-F-N-L (SFNL) [tetrapeptide with free C and N termini from combinatorial library] | – | most active | –
TLNL [tetrapeptide with free C and N termini from combinatorial library] | – | most active | –
